The subject of one assay is microglia. In words: cAMP pathway agents as co-activators with Aβ of microglia. The class given is cell-based. The source says:
Two of the four PGE2 isoforms, EP2 and EP4, are coupled to Gs and elevate cAMP levels upon activation. EP3 is coupled to Gi and inhibits cAMP production while EP1 increased Ca^++i. As a first step in distinguishing the receptor isoform mediating the PGE2 signal, the second messenger in the Aβ coactivation pathway was identified.

The subject of the next assay is primary glia. The experiment in a line: Aβ:PGE2 activation of primary glia in presence of EP2 antagonist. It counts as cell-based. The note with it: even at 10-fold higher concentration than the Kd; FIG. 7.
Another assay addresses T1, EP1 (Homo sapiens, UniProt P34995).
T1 sequence (P34995 1-402): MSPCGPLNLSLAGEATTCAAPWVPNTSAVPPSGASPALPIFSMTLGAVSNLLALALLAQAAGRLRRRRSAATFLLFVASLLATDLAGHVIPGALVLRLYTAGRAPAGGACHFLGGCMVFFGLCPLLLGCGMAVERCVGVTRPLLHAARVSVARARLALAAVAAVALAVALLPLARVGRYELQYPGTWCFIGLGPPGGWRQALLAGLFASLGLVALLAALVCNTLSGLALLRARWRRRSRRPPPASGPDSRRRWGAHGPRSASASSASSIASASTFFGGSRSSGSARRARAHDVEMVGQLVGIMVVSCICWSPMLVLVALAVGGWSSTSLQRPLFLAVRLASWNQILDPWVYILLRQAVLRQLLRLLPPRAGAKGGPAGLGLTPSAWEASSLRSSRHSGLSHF
The experiment in a line: [3H]-PGE2 binding to EP1. The settings on record: read-out: Ki for inhibition of [3H]-PGE2 binding to EP1.

In another assay the test system is BV-2 microglia. The experiment in a line: Aβ stimulation of BV-2 cells in presence of antagonist or antisense. It counts as cell-based, murine. An excerpt: In addition, the EP2 antagonist AH6809 had no effect on Aβ stimulation of BV-2 cells (FIG. 7). Aβ treatment of BV-2 microglia has two striking morphological effects. First, cells clumped in a manner consistent with the well documented microglial chemotactic activity to Aβ. Second, the morphology of individual cells is altered such that they change from a spherical to an elongated, process bearing shape.
Since selective EP4 antagonists were unavailable, an antisense approach is used to probe involvement of EP4 in Aβ:PGE2 activation of microglia. The antisense oligonucleotides are first tested for their ability to inhibit EP4 expression by measuring their effect on PGE2 stimulation of cAMP accumulation, an EP2/EP4 mediated event. Once the activity of the antisense oligonucleotide is confirmed, the effect of the oligonucleotide on Aβ:PGE2 activation is tested in BV-2 microglial cells.
Next, BV-2 cells are pretreated with the antisense oligonucleotides for 48 hours and then, in the continued presence of the oligonucleotide, the pretreated cells are exposed to Aβ. […] The EP4 construct decreases IL-1β by 50%, a substantial effect for this method of inhibition (FIG. 8).

Another assay addresses EP4 (Homo sapiens, UniProt P35408). In words: [3H]-PGE2 binding to EP4.
The next assay deals with EP2 (Homo sapiens, UniProt P43116). In words: PGE2 stimulated cAMP accumulation functional assay. It counts as cell-based. The settings on record: read-out: EC50 for inhibition of PGE2 induced cAMP generation. (Cyclic AMP is a second messenger, typically raised through Gs and lowered through Gi signalling.)
The subject of assay [1] is mouse microglial cell line MMGT-16. The experiment in a line: Aβ:PGE2 synergy in MMGT-16 cells, cytokine secretion. The class given is cell-based. The settings on record: agent alone. An excerpt: The protocol described above in Example 2 was then used to examine the synergy between PGE2 and Aβ in the mouse microglial cell line MMGT-16.
Synergy in MMGT-16 cells was examined by measuring secretion of both TNF-α (FIG. 5) and IL-1β (FIG. 4).

Assay [2] relates to BV-2 murine microglial cells. In words: Aβ activation of BV-2 cells (IL-1α). The class given is cell-based. The note with it: exogenous PGE2 co-incubation. The procedure:
BV-2 murine microglial cells display many phenotypic properties of primary microglia (Blasi et al., 1990; Bocchini et al., 1992), including responsiveness to Aβ (Murphy et al., 1998). BV-2 cells are quasi-activated under basal culture conditions and secrete significant quantities of PGE2, and Aβ treatment alone induces IL-1α in BV-2 cells. […] This was believed to result from co-activation by endogenous PGE2.
The PGE2 concentration in the 24 hour conditioned media from a BV-2 cell culture was a typically 500-800 pg/ml, well above that used for Aβ:PGE2 stimulation. […] Aβ activation of BV-2 cells is highly reproducible, having been observed in 90% of experiments with a mean stimulation of 3.2 fold (n=21; p<0.05 vs. media control).

For assay [3], the system named is primary cortical mixed glial cultures. The experiment in a line: Aβ:PGE2 synergy in primary cortical mixed glial cultures, cytokine levels. It counts as cell-based, mice. The settings on record: agent alone; 100 pg/ml PGE2 or 11 hour aged Aβ; 48 hours; indomethacin pretreated. The procedure:
(§1) As co-culture with astrocytes is known to promote the resting state for cultured microglia, mixed primary glial cultures are a particularly suitable system in which to examine PGE2:Aβ synergy. Briefly, cortices from P3 wild type mice were dissected in Ca^2+ and Mg^2+ free HBSS (Gibco). Meninges were carefully dissected away, and the tissue transferred to a dish containing HBSS supplemented with 0.53 mM EDTA and 0.05% trypsin. The tissue was incubated for 18 minutes at room temperature with occasional gentle agitation. Trypsin was removed and the tissue washed with HBSS twice prior to titration in growth medium consisting of high glucose DMEM supplemented with 10% fetal bovine serum (FBS), 110 mg/L sodium pyruvate, and 5 units/ml penicillin/streptomycin. The cell suspension was plated at 9 cortices in growth medium into one T75 and one T25 flask. The next day, nonadherent cells were removed. The culture was refed with growth medium at this time and once every 3 days following. When the culture appeared quite confluent, approximately one week, it was trypsinized and split into 48 well plates at 10^5 cells/well. Experiments were initiated in several days when cells again reached confluence.
The effect of Aβ in the presence and absence of exogenous PGE2 was investigated in these primary cortical mixed glial cultures. An Aβ peptide was resuspended at 4 mg/ml in 50% HFIP, incubated overnight at 37° C., dried in a Speed Vac, and resuspended in water at 4 mg/ml. The peptide was then “aged” at 37° C. for 11 or 24 hours and sonicated for 30 seconds on ice prior to use.
100 pg/ml of PGE2 is a low dose that is not expected to stimulate receptors for thromboxane or other prostenoids and is likely to be physiologically relevant. […] Treatments were made in duplicate. After 48 hours, media and lysates were harvested and assayed.
We confirmed the cellular source of the if biochemical signal by immunocytochemistry with an anti-mouse IL-1α monoclonal antibody (R&D Systems).

The subject of assay [4] is primary mixed murine glial cultures. In words: PGE2 in medium conditioned by primary mixed murine glial cultures. The class given is cell-based. The settings on record: 14 μM indomethacin during 48 hour conditioning; basal just under 200 pg/ml. The procedure: as §1
This is within the range in which would allow PGE2:Aβ synergy to be observed.

Here are results for 5 compounds from US6596474B1, “Prevention and treatment of amyloid-associated disorders” (Scios Inc., priority 1999, dated 2003).

Chain of EP2 (P43116 whole entry): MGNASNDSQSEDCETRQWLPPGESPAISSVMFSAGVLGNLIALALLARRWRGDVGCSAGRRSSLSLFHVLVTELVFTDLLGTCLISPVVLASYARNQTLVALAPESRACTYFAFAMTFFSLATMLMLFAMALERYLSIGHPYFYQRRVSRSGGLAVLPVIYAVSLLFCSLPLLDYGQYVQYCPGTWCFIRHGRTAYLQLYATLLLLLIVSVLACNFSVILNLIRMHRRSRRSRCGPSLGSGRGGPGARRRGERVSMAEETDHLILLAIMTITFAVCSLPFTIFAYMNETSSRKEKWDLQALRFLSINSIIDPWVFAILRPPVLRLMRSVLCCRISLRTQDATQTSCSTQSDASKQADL
Chain of EP4 (P35408 whole entry): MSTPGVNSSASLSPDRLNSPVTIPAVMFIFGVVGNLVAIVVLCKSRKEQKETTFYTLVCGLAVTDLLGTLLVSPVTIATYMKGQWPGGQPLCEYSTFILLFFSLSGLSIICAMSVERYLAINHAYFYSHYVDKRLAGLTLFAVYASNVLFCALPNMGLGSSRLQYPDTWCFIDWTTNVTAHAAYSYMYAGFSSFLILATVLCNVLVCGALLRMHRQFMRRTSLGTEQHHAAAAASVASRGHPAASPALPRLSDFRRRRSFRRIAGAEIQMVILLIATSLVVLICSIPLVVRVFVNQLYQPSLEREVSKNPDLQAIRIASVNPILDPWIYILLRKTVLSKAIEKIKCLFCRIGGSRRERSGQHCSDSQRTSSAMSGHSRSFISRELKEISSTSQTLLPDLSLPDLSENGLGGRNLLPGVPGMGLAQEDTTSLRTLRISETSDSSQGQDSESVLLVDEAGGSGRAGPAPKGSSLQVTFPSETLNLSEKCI
Excerpt for EP1: (§2) An EP1/2 selective antagonist AH6809 (Woodward et al., 1995) was used to block the activity of EP2.
Excerpt for EP4: as §2

Regarding `Nc1ncnc2c1nc(Br)n2[C@@H]1O[C@@H]2COP(=O)(O)O[C@H]2[C@H]1O` [8-Br-cAMP], in the assay on microglia, the “substitution for PGE2 as co-activator with Aβ” value is listed as “ability to substitute for PGE2 as a coactivator with Aβ”.

For the compound `CC(C)Oc1ccc2c(=O)c3cc(C(=O)O)ccc3oc2c1` [AH6809], the “effect on Aβ:PGE2 activation of primary glia” value with primary glia is listed as “no effect”. The Ki at EP1 amounted to 1000 nM. In addition, the “effect on morphological responses to Aβ (clumping, elongated process bearing shape)” value in the assay on BV-2 microglia (BV-2 microglia) was “no effect on either response”. Moreover, the “effect on Aβ stimulation of BV-2 cells” value in the assay on BV-2 microglia (FIG. 7) is “no effect”. The “inhibition of [3H]-PGE2 binding to EP4” value at EP4 was “lack of AH6809 inhibition”. The EC50 on EP2 was determined as 1000 nM.

Take `CCCCC[C@H](O)/C=C/[C@H]1[C@H](O)CC(=O)[C@@H]1C/C=C\CCCC(=O)O` [PGE2, Prostaglandin E2]: in assay [1], the TNF-α secretion result is “no discernable effect” and the “secretion of IL-1β” value is reported as “unaffected”. For the same compound, the “enhancement of Aβ-induced IL-1α elevation” value in assay [2] is given as “not further enhanced”. Further, in assay [3], the “intracellular IL-1α” value is listed as “Neither PGE2 nor 11 hour aged Aβ alone had an effect”, the “secreted IL-1α” value is “Neither PGE2 nor 11 hour aged Aβ alone had an effect” and the “secreted IL-6” value is “Neither PGE2 nor 11 hour aged Aβ alone had an effect”.

For the compound `COc1ccc2c(c1)c(CC(=O)O)c(C)n2C(=O)c1ccc(Cl)cc1` [indomethacin], in assay [4], the PGE2 secretion result is given as “about 30 pg/ml”.

In the case of `COc1ccc(C2CNC(=O)C2)cc1OC1CCCC1` (stereo not drawn) [rolipram], the “effect on Aβ:PGE2 stimulation of microglial cytokine production” value in the assay with microglia is “enhance”.

What is called Ki is a measure of affinity in units of concentration, obtained from inhibition or displacement.
